We go through 13 compounds from patent publication US20200223837A1, “BENZOFURAN AMIDES AND HETEROAROMATIC ANALOGUES THEREOF FOR USE IN THERAPY” (European Molecular Biology Laboratory, priority 2017, published 2020).

In data set [1] the test system is EGR1 promoter. The data set can be described thus: EGR1 reporter assay (luciferase) in genomically engineered HeLa cell line. The class given is cell-based. To be noted: Homo sapiens; EGR1 reporter HeLa cells, luciferase activity after 24 hours with compound. A digest of the protocol:
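HeLa cells with eGFP-P2A-luciferase knocked in by CRISPR behind the endogenous EGR1 promoter, seeded 2000/well in DMEM with 10% FCS for 24 h. Cells treated 24 h with an 11-point 1:3 series from 100 μM initial DMSO dilution. Readout: luciferase bioluminescence.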

Data set [2] relates to patient derived CLL samples. Nature of the data set: Growth inhibition of cells derived from patients with CLL. In kind it is cell-based. To be noted: three days incubation, ATPlite. How it is done: HeLa, A549 and HCT116 cells were grown in high-glucose Dulbecco's Modified Eagle's Medium (DMEM, Sigma)+10% FBS+1% penicillin and streptomycin+1% L-glutamine, at 37° C. with 5% CO2 and 95% humidity. Cytotoxic screening of the ProQinase panel of 100 cell-lines was performed by ProQinase (Freiburg, Germany). Patient derived CLL isolates were prepared and screened as described by Dietrich et al. (S. Dietrich et al., J Clin Invest, 2018, 128(1), 427-445). Cell viability was determined after 48 hours using the ATP-based CellTiter Glo assay (Promega). Luminescence was measured with a Tecan Infinite F200 Microplate Reader (Tecan Group AG) and with an integration time of 0.2 seconds per well.
The response of 97 tumour samples derived from patients with CLL was investigated. All samples tumor cells were obtained from whole blood, subjected to Ficoll-Isopaque density centrifugation. CD19+B and CD3+ T cells were isolated by positive magnetic cell separation (Miltenyi Biotec). Sorted cells were checked for purity by fluorescence-activated cell sorting (FACS) with CD19/CD20 for healthy control samples and CD19/CD20/CD5 for CLL samples (BD Biosciences). Following sorting, all samples with a CD19/CD20/CD5 purity <98% were subjected to additional sorting, and the average final purity of all sorted samples was >99%. CLL samples with >[…] were not subject to purification.
Cells are incubated for three days with an eight-point three-fold titration series of the test compound from an initial concentration of 30 μM (2000 cells per well in a volume of 50 μl). Cellular viability is estimated by the addition of 25 μL of ATPlite (Perkin Elmer) with the resulting luminescence measured using an EnVision Xcite plate reader (Perkin Elmer).
In addition, the growth inhibitory response of a selection of 27 patient derived CLL isolates (S. Dietrich et al., J Clin Invest, 2018, 128(1), 427-445) against the compounds of examples 64 and 85 was evaluated using the procedure as described above.
(Cellular ATP, detected with luciferase, serves as a proxy for viable cell number.)

In data set [3] the target is T1, pirin (Homo sapiens, UniProt O00625).
T1 sequence (O00625 1-290): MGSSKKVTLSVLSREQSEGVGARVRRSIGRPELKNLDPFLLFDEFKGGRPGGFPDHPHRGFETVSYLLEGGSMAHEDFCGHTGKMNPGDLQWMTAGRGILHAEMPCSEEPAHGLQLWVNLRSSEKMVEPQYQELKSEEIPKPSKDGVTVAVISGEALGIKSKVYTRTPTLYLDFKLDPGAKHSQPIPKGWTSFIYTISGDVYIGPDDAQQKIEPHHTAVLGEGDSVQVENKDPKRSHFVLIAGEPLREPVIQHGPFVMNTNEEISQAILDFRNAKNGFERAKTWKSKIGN
Nature of the data set: Surface plasmon resonance on immobilized pirin (Biacore). The class given is binding. Further details: hexahistidine tag (N); strep tag (C); host or cells: E. coli. To be noted: SPR, pirin on CM7 chip, PBS with 2% DMSO and 0.05% tween 20. Here is the method: A control chip was also prepared under identical condition but without including pirin in the reaction. […] A series of increasing concentrations of compound, either the control ThPA or a compound of the present invention is then applied to the pirin modified CM7 chip in phosphate buffered saline containing 2% DMSO and 0.05% tween 20 and sensorgrams are recorded covering the association, equilibrium and dissociation phases of the response.
In general terms: In SPR one partner is held on a chip, and binding of the other changes the refractive index at the surface.

In data set [4] the target is T1, pirin. Nature of the data set: Nano differential scanning fluorimetry (NanoDSF), thermal melting of pirin. To be noted: 10 μM pirin in PBS, 20 μM test compound. Background: In DSF a fluorescence change marks the thermal transition of the protein.
Description: NanoDSF is an advanced Differential Scanning Fluorimetry method for measuring protein stability using intrinsic tryptophan or tyrosine fluorescence. The fluorescence of the tryptophans and tyrosines in a protein is strongly dependent on their close surroundings. Changes in protein structure typically affect both the intensity and the emission wavelength especially of tryptophan fluorescence. By measuring fluorescence intensity at 330 nm and 350 nm, the change in fluorescence intensity and the shift of the fluorescence maximum upon unfolding can be used to detect thermal melting of the protein. Proteins are stabilized when associated with ligands and show a shift in their melting temperatures. NanoDSF has the advantages of being label free and observing the protein in solution.
A 10 μM solution of pirin in phosphate buffered saline, with or without 20 μM test compound, is subject to thermal denaturation under fluorescence monitoring using a Prometheus NT.48 instrument of NanoTemper Technologies. Unliganded pirin has a complex biphasic melting curve. […] If the test compound is a ligand to pirin, it adopts a single thermal transition some 10° C. above that of apopirin.

Structures can show the parent of a compound that is named as a salt.

Broadly, the EC50 is the concentration that produces a half-maximal response. For orientation: Kd means the concentration at which binding is half-saturated. Lower therefore signals tighter binding.

Turning to `Cc1cccc2c(CC(=O)Nc3ncc(C(F)(F)F)s3)coc12` [Example 72, 2-(7-Methylbenzofuran-3-yl)-N-[5-(trifluoromethyl)thiazol-2-yl]acetamide], in data set [1], the EC50 fell in the range of 0.01 to 10 µM. For the same compound, the “patient samples killed with an EC50 less than 10 μM” value in data set [2] (45 of 97 samples) is on record as 46%. Moreover, the “patient derived CLL samples with cytotoxic effect” value in data set [2] (90 of 97 samples) came out at 93%. In data set [3], the Kd was found to be 1.6 µM.
As for `COCc1cnc(NC(=O)Cc2coc3c(Cl)c(Cl)ccc23)s1` [Example 93, 2-(6,7-Dichlorobenzofuran-3-yl)-N-[5-(methoxymethyl)thiazol-2-yl]acetamide], in data set [1], the EC50 is 0.01 to 10 µM.
On to `Cc1c(Cl)ccc2c(CC(=O)Nc3ncc(C(F)(F)F)s3)coc12` [Example 94, 2-(6-Chloro-7-methyl-benzofuran-3-yl)-N-[5-(trifluoromethyl)thiazol-2-yl]acetamide], for which, in data set [1], the EC50 lay in the range of 0.01 to 10 µM.
As to `Cc1ccc2c(CC(=O)Nc3ncc(C(C)C)s3)coc2c1C` [Example 95, 2-(6,7-Dimethylbenzofuran-3-yl)-N-(5-isopropylthiazol-2-yl)acetamide], the EC50 in data set [1] was 0.01 to 10 µM.
On to `COc1c(C)ccc2c(CC(=O)Nc3ncc(C(F)(F)F)s3)coc12` [Example 97, 2-(7-Methoxy-6-methyl-benzofuran-3-yl)-N-[5-(trifluoromethyl)thiazol-2-yl]acetamide], for which the EC50 in data set [1] lay in the range of 0.01 to 10 µM.
Consider `CCc1cnc(NC(=O)Cc2coc3c(C)c(C)ccc23)s1` [Example 98, 2-(6,7-Dimethylbenzofuran-3-yl)-N-(5-ethylthiazol-2-yl)acetamide], for which, in data set [1], the EC50 lay within 0.01 to 10 µM.
Consider `Cc1ccc2c(CC(=O)Nc3ncc(C(F)(F)F)s3)coc2c1C` [Example 99, 2-(6,7-Dimethylbenzofuran-3-yl)-N-[5-(trifluoromethyl)thiazol-2-yl]acetamide], for which the EC50 in data set [1] is 0.01 to 10 µM.
As for `NCc1ccc(-c2csc(NC(=O)Cc3coc4cc5c(cc34)CCC5)n2)o1` [Example 100, hydrochloride salt], the concentration for a half-maximal effect (EC50) in data set [1] lay in the range of 0.01 to 10 µM.
On to `Cc1cc2occ(CC(=O)Nc3nc(-c4ccc(CN)cc4)cs3)c2cc1C` [Example 101, N-[4-[4-(Aminomethyl)phenyl]thiazol-2-yl]-2-(5,6-dimethylbenzofuran-3-yl)acetamide, hydrochloride salt], for which, in data set [1], the EC50 was 0.01 to 10 µM. Also, in data set [4], the “increase in the Tm of melting” value was “approximately 11 °C”.
With `Cc1ccc2c(CC(=O)N(c3ccc(SC(F)F)cc3)c3nc4ccccc4s3)coc2c1` [Example 102, N-(1,3-Benzothiazol-2-yl)-N-[4-(difluoromethylsulfanyl)phenyl]-2-(6-methylbenzofuran-3-yl)acetamide], the EC50 in data set [1] lay in the range of 0.01 to 10 µM.
Consider `CNC(=O)c1nc(NC(=O)Cc2coc3c(C)c(C)ccc23)sc1C(F)(F)F` [Example 103, 2-(2-(6,7-dimethylbenzofuran-3-yl)acetamido)-N-methyl-5-(trifluoromethyl)thiazole-4-carboxamide], for which, in data set [1], the EC50 is 10 to 100 µM.
For the compound `Cc1cnc(NC(=O)Cc2coc3ncccc23)s1` [Example 104, 2-(Furo[2,3-b]pyridin-3-yl)-N-(5-methylthiazol-2-yl)acetamide], in data set [1], the EC50 lay in the range of 10 to 100 µM.
Consider `O=C(Cc1coc2ncccc12)Nc1ncc(C(F)(F)F)s1` [Example 106, 2-(Furo[2,3-b]pyridin-3-yl)-N-(5-(trifluoromethyl)thiazol-2-yl)acetamide], for which the EC50 in data set [1] lay within 0.01 to 10 µM.
